Among the data in ChEMBL document CHEMBL5236648, “Improved synthesis of deoxyalpinoid B and quantification of antileishmanial activity of deoxyalpinoid B and sulforaphane” (Bioorg Med Chem, 2023) are Activity, viability and IC50 values, retold here.

In series [1] the test system is THP-1. The experiment in a line: Induction of oxidative stress in human THP-1 cells assessed as increase in intracellular ROS level at 0.5 uM incubated for 1 hr by H2DCFA fluorescent probe based flow cytometry analysis. It counts as functional, cell-based.
For series [2], the system named is Leishmania donovani. The experiment in a line: Antileishmanial activity against Leishmania donovani MHOM/IN/Dd8 metacyclic promastigotes infected in PMA-differentiated human THP-1 cells assessed as reduction in number of amastigotes per 100 cell at 0.5 uM incubated for 48 hrs by DAPI staining based inverted microscopic analysis. It counts as functional, organism-based.

Series [3] in a line: Cytotoxicity against human THP-1 cells assessed as cell viability at 5 uM incubated for 48 hrs by MTT assay relative to control. It counts as toxicity, cell-based. To be noted: read-out: Activity.
Series [4] in a line: Cytotoxicity against human THP-1 cells assessed as cell viability at 10 uM incubated for 48 hrs by MTT assay relative to control. It counts as toxicity, cell-based. To be noted: read-out: Activity. For orientation: Tetrazolium dyes change colour on reduction, which living cells bring about.
The nature of series [5]: Cytotoxicity against human THP-1 cells assessed as cell viability at 50 to 100 uM incubated for 48 hrs by MTT assay relative to control.
Series [6] has as its system Leishmania donovani. The experiment in a line: Antileishmanial activity against Leishmania donovani MHOM/IN/Dd8 promastigotes assessed as inhibition of promastigotes growth incubated for 48 hrs by MTT assay. It counts as functional, organism-based. To be noted: MHOM/IN/Dd8, 48 h.
The subject of series [7] is Leishmania donovani. The experiment in a line: Antileishmanial activity against Leishmania donovani MHOM/IN/Dd8 promastigotes assessed as promastigotes viability at 10 uM incubated for 48 hrs by MTT assay relative to control. It counts as functional.
For series [8], the system named is Leishmania donovani. The experiment in a line: Antileishmanial activity against Leishmania donovani MHOM/IN/Dd8 promastigotes assessed as promastigotes viability at 50 uM incubated for 48 hrs by MTT assay relative to control. It counts as functional.
For another series, the system named is Leishmania infantum. The experiment in a line: Antileishmanial activity against Leishmania infantum MHOM/TN/80/IPT-1 promastigotes assessed as inhibition of promastigotes growth incubated for 48 hrs by MTT assay. It counts as functional, organism-based. To be noted: MHOM/TN/80/IPT-1, 48 h.
The subject of series [9] is Leishmania donovani. The experiment in a line: Antileishmanial activity against Leishmania donovani MHOM/IN/Dd8 promastigotes infected in PMA-differentiated human THP-1 cells assessed as activation of neuroactive ligand-receptor interactions at 10 uM incubated for 18 hrs by KEGG analysis. It counts as functional, organism-based.
Series [10] has as its system THP-1. The experiment in a line: Induction of oxidative stress in human THP-1 cells assessed as increase in intracellular ROS level at 10 uM incubated for 1 hr by H2DCFA fluorescent probe based flow cytometry analysis. It counts as functional, cell-based.
Series [11] relates to THP-1. The experiment in a line: Cytotoxicity against human THP-1 cells assessed as reduction in cell viability at 50 to 100 uM incubated for 48 hrs by MTT assay. It counts as toxicity, cell-based. To be noted: thp-1, 48 h, dose 50-100 µM.
In series [12] the test system is Leishmania donovani. The experiment in a line: Induction of oxidative stress in Leishmania donovani MHOM/IN/Dd8 promastigotes assessed as increase in intracellular ROS level at 10 to 50 uM incubated for 24 hrs by H2DCFA fluorescent probe based flow cytometry analysis. It counts as functional, organism-based. To be noted: dose 10-50 µM.
Series [13] deals with Leishmania donovani. The experiment in a line: Induction of oxidative stress in Leishmania donovani MHOM/IN/Dd8 promastigotes assessed as increase in mitochondrial superoxide level at 10 to 50 uM incubated for 24 hrs by Mito sox based flow cytometry analysis. It counts as functional, organism-based. To be noted: dose 10-50 µM. On the technique in general: Flow cytometry measures light scatter and fluorescence of single cells or particles in a stream.

For series [14], the system named is Leishmania donovani. The experiment in a line: Antileishmanial activity against Leishmania donovani MHOM/IN/Dd8 promastigotes infected in PMA-differentiated human THP-1 cells assessed as increase in heat shock protein A6 expression at 10 uM incubated for 18 hrs by RNA-seq analysis. It counts as functional, organism-based.
Series [15] has as its system Leishmania donovani. The experiment in a line: Antileishmanial activity against Leishmania donovani MHOM/IN/Dd8 promastigotes infected in PMA-differentiated human THP-1 cells assessed as increase in heat shock protein A7 expression at 10 uM incubated for 18 hrs by RNA-seq analysis. It counts as functional, organism-based.
Series [16] has as its system Leishmania donovani. The experiment in a line: Antileishmanial activity against Leishmania donovani MHOM/IN/Dd8 promastigotes infected in PMA-differentiated human THP-1 cells assessed as increase in Hes family transcription factor 7 gene expression at 10 uM incubated for 18 hrs by RNA-seq analysis. It counts as functional, organism-based.
For series [17], the system named is Leishmania donovani. The experiment in a line: Antileishmanial activity against Leishmania donovani MHOM/IN/Dd8 metacyclic promastigotes infected in PMA-differentiated human THP-1 cells assessed as reduction in amastigotes formation at 10 uM incubated for 48 hrs by DAPI staining based inverted microscopic analysis. It counts as functional, organism-based.

Calls of active or inactive are those of the source. The rule behind the calls is not given here. A value given as a limit tells only on which side of the number the result lay.

As for `C[C@@H]1[C@H](O)[C@@H](C)/C=C/C=C/C=C/C=C/C=C/C=C/C=C/[C@H](O[C@@H]2O[C@H](C)[C@@H](O)[C@H](N)[C@@H]2O)C[C@@H]2O[C@](O)(C[C@@H](O)C[C@@H](O)[C@H](O)CC[C@@H](O)C[C@@H](O)CC(=O)O[C@H]1C)C[C@H](O)[C@H]2C(=O)O`, in the series with THP-1 [1], the outcome was inactive. The outcome in the series with Leishmania donovani [2] was Active.
One may read the IC50 as the concentration that gives 50% inhibition. On to `C[S+]([O-])CCCCN=C=S` (stereo unspecified) [SULFORAPHANE], for which, in [3], the viability at 48 h, 5 µM came to 84%. In addition, in series [4], the viability at 48 h, 10 µM amounted to 76%. In addition, in series [5], the viability at 48 h, 100 µM was below 45%. Also, the IC50 was 23.3 µM with Leishmania donovani [6] and 16.5 µM in the series with Leishmania infantum. Besides, the Activity is listed as 57% in the series on Leishmania donovani [7] and below 10% in the series on Leishmania donovani [8]. The outcome in the series on Leishmania donovani [9] and in the series with THP-1 [10] was Active.
As to `COc1cc(CC/C=C/C(=O)CCc2ccccc2)ccc1O`, the viability at 48 h, 5 µM in series [3] came to 79%. The viability at 48 h, 10 µM in [4] is 76%. Besides, the Activity result in the series with THP-1 [11] is “Toxic”; with Leishmania donovani [7] it was 43%; with Leishmania donovani [8] it was below 10%. For the same compound, the IC50 in the series with Leishmania donovani [6] came to 21.4 µM; in the series on Leishmania infantum, 22 µM. Moreover, the result in the series with Leishmania donovani [12], in the series with Leishmania donovani [13], in the series on Leishmania donovani [14], with Leishmania donovani [15], in the series on Leishmania donovani [16] and in the series on Leishmania donovani [9] was Active. In addition, the outcome in the series with THP-1 [10] and in the series with Leishmania donovani [17] was Active.
